Results on 80 compounds are retold here after the METLIN SMRT retention time set (Domingo-Almenara et al. 2019).

The series is described as follows: gradient 5% acetonitrile 3 min, to 50% in 2 min, to 85% in 15 min, held 3 min, 100 µL/min. Conditions: column: Zorbax Extend-C18 2.1 x 50 mm; eluents: water / acetonitrile, 0.1% formic acid. An outline of the steps:
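Retention times of pure standards were taken from adduct peaks that were selected by computer and manually inspected. Over 3 months, mixtures of ~100 molecules were run by HPLC–quadrupole time-of-flight mass spectrometry in positive and negative ionization mode. The Zorbax Extend-C18 column (2.1 × 50 mm, 1.8 μm) ran at 100 μL/min in water and acetonitrile, each containing 0.1% formic acid, with 40 μL dead volume and 900 μL dwell volume.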
The compound `Cc1ccc2[nH]cc(CCNC(=O)CCC(=O)N3CCSc4c3c(C)nn4-c3ccccc3)c2c1` came in with an RP-LC retention time of 896 s.

Turning to `CNC(=O)C1CCCN(c2nc3ncn(CC(=O)Nc4ccc(C(C)C)cc4)c(=O)c3s2)C1` (stereo not given), the RP-LC retention time came to 731 s. The value for `Cn1ncc2c(N3CCSCC3)nc(C(=O)Nc3ccccc3)nc21` was 819 s. The value for `O=C(c1ccc2c(c1)OCO2)N1CCC(c2nc(C3CC3)no2)C1` (stereo not given) was 740 s; that for `C=CCc1c(C)c(C#N)c2nc3ccccc3n2c1NCCOCCO` was 589 s.

`O=c1c(S(=O)(=O)N2CCCCCC2)cccn1Cc1cccc(F)c1` yielded an RP-LC retention time of 946 s.

Regarding `Cc1cc(C(=O)N2CC(c3nc4ccccc4[nH]3)C2)no1`, the RP-LC retention time was found to be 555 s. The value for `Cc1noc(C)c1CC(=O)N1CC(c2nc(-c3cccs3)no2)C1` was 690 s.

With `CCc1ccc(-c2cn3cc(C(=O)N4CCCN(C)CC4)ccc3n2)cc1`, the RP-LC retention time was found to be 570 s. Compound `CCCCS(=O)(=O)c1cc2c(cc1NC(=O)Cc1ccc(F)cc1)n(C)c(=O)n2C` registered an RP-LC retention time of 847 s. The value for `O=C(Nc1ccccc1Cl)C1CCCN(C(=O)Cc2cccc3ccccc23)C1` (stereo not given) was 995 s; that for `Cc1c(Cl)cccc1N1C(=O)CN(S(C)(=O)=O)CC1(C)C(=O)NC1CCCCCC1` (stereo not given) was 938 s. `Clc1cccc(-c2nnc(-c3nc(NC4CCCC4)c4ccccc4n3)o2)c1` had an RP-LC retention time of 1170 s. As to `O=C(c1ccccc1F)N1CCc2nc(-c3ccccc3)ncc2C1`, the RP-LC retention time amounted to 883 s. The value for `CCN(CC)C(=O)c1ccc(-c2nc3cc(NS(=O)(=O)c4ccccc4)ccc3n2C)cc1` was 671 s; that for `Cc1ccc(Nc2c(-c3ccc(Cl)cc3)nc3ncccn23)cc1C` was 942 s; that for `Cc1cc(F)ccc1N1C(=O)CN(S(C)(=O)=O)CC1(C)C(=O)NC1CCCCCCC1` (stereo not given) was 1070 s. The value for `CC1=NS(=O)(=O)N(Cc2ccccc2)C=C1C(=O)OCc1ccc(F)cc1F` was 1090 s; that for `COc1ccc(-c2nc(NCCN3CCC(C)CC3)c3ccccc3n2)cc1` was 580 s; that for `Cc1cccc(OCc2ccc(-c3nc(C#N)c(NCCN(C)C)o3)o2)c1` was 708 s.

In turn, `CN(CC1CCOC1)C(=O)NCCc1ccccc1` (stereo not given) came in with an RP-LC retention time of 650 s. The value for `COc1ccc(C(C)NC(=O)CCc2ccc3c(ccn3C)c2)cc1OC` (stereo not given) was 819 s; that for `Cc1ncc2c(n1)C[C@@H]1CC[C@H]2N1C(=O)Nc1ccc(C)c(C)c1` was 707 s. The value for `CCN1C(=O)COc2ccc(-c3noc(Cc4ccc(OC)c(OC)c4)n3)cc21` was 923 s; that for `Cc1c(C(N)=O)nnn1-c1ccccc1` was 645 s. `CCC(C)NC(=O)c1ccc(-c2ccc(N3CCSCC3)nc2)cc1` (stereo not given) yielded an RP-LC retention time of 711 s.

As to `CCc1cccc(C)c1Nc1c(-c2cccc(O)c2)nc2nc(C)cc(C)n12`, the RP-LC retention time is 712 s. On to `CCOc1ccccc1-c1noc(Cn2c(=O)n(-c3ccc(Cl)cc3)c(=O)c3sccc32)n1`, for which the RP-LC retention time stood at 1030 s. Compound `Cc1ccc(-c2nnc(SCc3cccc(Cl)c3)o2)cc1` displayed an RP-LC retention time of 1210 s. On to `O=C(NC1CC1)c1ccc(OCC2CCN(C(=O)c3ccc(Cl)cc3)CC2)cc1`, for which the RP-LC retention time turned out to be 850 s. For `COC(=O)c1cccc(NC(=O)N2CCC3(CC2)NC(=O)c2ccccc2O3)c1`, the RP-LC retention time stood at 736 s. `CC1CCN(S(=O)(=O)c2ccc(-c3nnc(C(=O)N4CCCCC4)o3)cc2)CC1` displayed an RP-LC retention time of 1040 s. The value for `O=C(Cn1ccc2ccn(Cc3ccccc3F)c2c1=O)NCc1ccc(F)cc1F` was 880 s; that for `COc1cccc(CNC(=O)Cn2cnc3nc(N4CCC(C(=O)NC5CC5)CC4)sc3c2=O)c1` was 646 s; that for `Cc1cccc(Sc2nccnc2N2CCC(C(=O)NCCC3=CCCCC3)CC2)c1` was 1220 s.

`COc1ccc(NC(=O)CC(C)=O)c(OC)c1` came in with an RP-LC retention time of 649 s.

`CCC(=O)N(C1CCOCC1)C1CCN(S(=O)(=O)c2ccc(F)c(Cl)c2)CC1` registered an RP-LC retention time of 884 s. Regarding `O=S(=O)(Nc1cccc(F)c1)c1ccc2nncn2c1`, the RP-LC retention time worked out at 657 s. `O=C(Nc1nc2c(s1)CCC2)c1ccc2c(c1)OCO2` yielded an RP-LC retention time of 812 s. In turn, `COc1ccc(C(=O)N2CCN(c3nc(CN4CCOCC4)cs3)CC2)cn1` returned an RP-LC retention time of 580 s. As for `Cc1ccc(NC(=O)c2cccc([N+](=O)[O-])c2O)c([N+](=O)[O-])c1`, the RP-LC retention time came out at 982 s.

In turn, `CCn1c(=O)c(=O)n(CC(=O)N2CCN(c3ccccn3)CC2)c2ccccc21` showed an RP-LC retention time of 563 s. The value for `Cc1oc(-c2[nH]ncc2C(=O)N2CCCC2)cc1S(=O)(=O)Nc1cc(F)ccc1F` was 699 s; that for `COc1cc(OC)cc(C(=O)N2CCC3(CC2)NC(=O)c2ccccc2N3C)c1` was 734 s; that for `OCCN1CCN(CCCN2c3ccccc3C=Cc3ccccc32)CC1` was 692 s.

As for `O=C1CCc2cc(NC(=O)c3n[nH]c4ccccc34)ccc2N1`, the RP-LC retention time was 633 s. `CC1=C(c2ccc(F)cc2)S(=O)(=O)N=C1N1CCCN(C(=O)c2ccccn2)CC1` yielded an RP-LC retention time of 713 s. In turn, `CSc1ccc(-c2nc3cccc(C)n3c2Nc2ccc3c(c2)OCCO3)cc1` showed an RP-LC retention time of 719 s. `COc1ccc(-c2nc(C)cc3nn(CC(=O)Nc4cc(C)cc(C)c4)c(=O)n23)cc1` yielded an RP-LC retention time of 906 s. In turn, `Cc1ccc(S(=O)(=O)NCC(=O)Oc2ccccc2C)cc1` yielded an RP-LC retention time of 881 s. The value for `Cc1ccc(N2CCn3c2nc2c3c(=O)n(CC(=O)O)c(=O)n2C)cc1` was 730 s; that for `CCOC(=O)c1nn(-c2cc(C(=O)OC)cc(C(=O)OC)c2)cc1O` was 769 s. `CCCNC(=O)Cc1nnc(-c2ccc(C)cc2)o1` returned an RP-LC retention time of 710 s. In the case of `O=C(c1ccc(OCC2CCCN2C(=O)C2CC2)cc1)N1CCCC1` (stereo not given), the RP-LC retention time was found to be 714 s. The value for `CCC(C)NC(=O)N1CCN(Cc2nc3cc(C(=O)N(C)C)ccc3n2C)CC1` (stereo not given) was 586 s; that for `Cc1ccc(N2CC(c3nc(-c4ccc5c(c4)ncn5C)no3)CC2=O)cc1` (stereo not given) was 664 s; that for `CCCn1c(C2CCN(C(=O)c3sccc3C)C2)nc2cccnc21` (stereo not given) was 716 s. In turn, `COc1cccc(C(=O)NC2CCN(c3ccc(F)cc3)C2=O)c1` (stereo not given) gave an RP-LC retention time of 756 s.

On to `CCn1cnc(S(=O)(=O)N2CCCC(C(=O)Nc3ccc(-c4nc5ccccc5[nH]4)cc3)C2)c1` (stereo not given), for which the RP-LC retention time came to 633 s. `COc1cc(C(C)=O)ccc1OCC(O)CN1CCN(c2ccc(C)c(Cl)c2)CC1` (stereo not given) returned an RP-LC retention time of 585 s.

On to `Cc1ccc(-c2noc(-c3cccc(S(=O)(=O)Nc4ccccn4)c3)n2)cc1`, for which the RP-LC retention time is 935 s. For the compound `COc1cc([C@H]2Oc3cc([C@@H]4Oc5cc(O)cc(O)c5C(=O)[C@@H]4O)ccc3O[C@@H]2CO)ccc1O`, the RP-LC retention time came out at 754 s.

For `CCn1nccc1C(=O)Nc1ccc(-n2cnnn2)cc1`, the RP-LC retention time was determined as 652 s. Regarding `CCc1cc(=O)n(CC(=O)Nc2cccc(C)c2)c(N2CCOCC2)n1`, the RP-LC retention time worked out at 770 s. The compound `CC(n1cc(C[C@H](N)C(=O)O)c2ccccc21)n1cc(C[C@H](N)C(=O)O)c2ccccc21` yielded an RP-LC retention time of 628 s. `CCCn1cc(C(=O)NCC(C)C)c2nn(-c3ccccc3)c(=O)c-2c1` gave an RP-LC retention time of 878 s.

On to `O=c1onc2cnc3ccccc3n12`, for which the RP-LC retention time is 822 s.

In turn, `O=C(Cn1nc2c(N3CCCCCC3)nccn2c1=O)NCc1cc(F)cc(F)c1` showed an RP-LC retention time of 744 s. As to `CC(=O)c1ccc(NC(=O)C(C)Oc2cc(-c3ccccc3)c3c(C)nn(C)c3n2)cc1` (stereo not given), the RP-LC retention time turned out to be 990 s. With `Cc1ccccc1NC(=O)c1cc(C(C)C)n2nccc2n1`, the RP-LC retention time worked out at 1090 s.

Turning to `O=C(NCCS(=O)(=O)N1CCN(c2ccccc2)CC1)c1ccc(Br)o1`, the RP-LC retention time amounted to 807 s. On to `CCC1CN(C(=O)N2CCC(C(=O)NCCCN3CCCCCC3)CC2)c2ccccc2O1` (stereo not given), for which the RP-LC retention time stood at 663 s. The value for `Cc1noc(C)c1C1CCCN1C(=O)Cc1cccc(Cl)c1` (stereo not given) was 810 s; that for `Cc1cnc(NC(=O)C2CN(c3nc4ccccc4s3)C2)s1` was 700 s.

As to `O=C(Cn1cccc(-c2nc(-c3ccc(F)cc3)no2)c1=O)Nc1ccc2c(c1)OCCO2`, the RP-LC retention time was determined as 832 s. The value for `O=C(Cn1nc2c3ccc(Cl)cc3ncn2c1=O)Nc1ccc(F)cc1` was 744 s; that for `NC(=O)c1ccsc1NC(=O)c1ccccc1[N+](=O)[O-]` was 669 s. With `CCn1ccc(-c2nc(-c3ccc4oc(-c5ccccc5)nc4c3)no2)n1`, the RP-LC retention time is 1130 s. `Cc1nc2c(NC(=O)COc3ccc(F)c(F)c3)cccn2n1` displayed an RP-LC retention time of 818 s. For `O=C(C1CCCC1)N1CCN(c2cc(-c3ccc(Cl)cc3)[nH]n2)CC1`, the RP-LC retention time came out at 877 s.
